Test results: patent US20240317735A1, “HYDROISOQUINOLINE OR HYDRONAPHTHYRIDINE COMPOUNDS FOR THE TREATMENT OF AUTOIMMUNE DISEASE” (Hoffmann-La Roche Inc., priority 2020, published 2024)

Biological target: T1, human TLR7 (Homo sapiens, UniProt Q9NYK1)
T1 construct: host or cells: HEK293 (HEK-Blue hTLR7)
T1 sequence (Q9NYK1 27-1049): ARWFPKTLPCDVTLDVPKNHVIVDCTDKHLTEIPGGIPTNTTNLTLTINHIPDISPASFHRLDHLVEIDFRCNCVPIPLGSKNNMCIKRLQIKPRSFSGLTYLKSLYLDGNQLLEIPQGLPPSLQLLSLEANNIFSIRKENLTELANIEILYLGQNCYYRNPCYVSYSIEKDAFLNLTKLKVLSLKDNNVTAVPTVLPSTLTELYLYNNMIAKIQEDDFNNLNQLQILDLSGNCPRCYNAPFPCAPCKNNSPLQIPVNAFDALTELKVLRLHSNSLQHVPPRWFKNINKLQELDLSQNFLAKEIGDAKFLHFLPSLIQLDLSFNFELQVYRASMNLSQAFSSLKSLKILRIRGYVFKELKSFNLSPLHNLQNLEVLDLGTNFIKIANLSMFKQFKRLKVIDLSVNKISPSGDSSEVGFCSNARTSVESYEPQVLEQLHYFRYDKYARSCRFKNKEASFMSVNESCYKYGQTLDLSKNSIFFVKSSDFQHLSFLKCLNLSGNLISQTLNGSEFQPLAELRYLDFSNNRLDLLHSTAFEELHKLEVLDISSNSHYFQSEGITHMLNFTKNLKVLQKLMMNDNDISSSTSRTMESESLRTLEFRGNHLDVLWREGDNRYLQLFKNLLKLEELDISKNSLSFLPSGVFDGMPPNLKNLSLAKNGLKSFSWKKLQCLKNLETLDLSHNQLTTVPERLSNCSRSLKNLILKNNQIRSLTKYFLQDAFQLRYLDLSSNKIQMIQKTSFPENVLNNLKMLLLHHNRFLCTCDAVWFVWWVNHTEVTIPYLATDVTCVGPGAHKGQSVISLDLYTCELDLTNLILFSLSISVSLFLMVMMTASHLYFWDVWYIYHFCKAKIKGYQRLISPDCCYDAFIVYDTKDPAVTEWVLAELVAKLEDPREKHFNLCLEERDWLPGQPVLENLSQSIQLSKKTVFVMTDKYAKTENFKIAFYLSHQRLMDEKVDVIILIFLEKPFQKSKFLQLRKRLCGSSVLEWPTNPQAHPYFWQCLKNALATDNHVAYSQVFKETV
Assay: HEK293-Blue-hTLR-7 cells assay (SEAP reporter, R848 stimulation)
Format: cell-based
Settings: HEK293-Blue-hTLR7 cells, R848, 20 hrs; read-out: HEK/hTLR7 IC50
Procedure: The following tests were carried out in order to determine the activity of the compounds of formula (I) and (Ia) in HEK293-Blue-hTLR-7/8/9 cells assay.
A stable HEK293-Blue-hTLR-7 cell line was purchased from InvivoGen (Cat. #: hkb-htlr7, San Diego, California, USA). These cells were originally designed for studying the stimulation of human TLR7 by monitoring the activation of NF-κB. A SEAP (secreted embryonic alkaline phosphatase) reporter gene was placed under the control of the IFN-β minimal promoter fused to five NF-κB and AP-1-binding sites. The SEAP was induced by activating NF-κB and AP-1 via stimulating HEK-Blue hTLR7 cells with TLR7 ligands. Therefore the reporter expression w % as declined by TLR7 antagonist under the stimulation of a ligand, such as R848 (Resiquimod), for incubation of 20 hrs. The cell culture supernatant SEAP reporter activity was determined using QUANTI-Blue™ kit (Cat. #: rep-qb1, Invivogen, San Diego, Ca, USA) at a wavelength of 640 nm, a detection medium that turns purple or blue in the presence of alkaline phosphatase.
HEK293-Blue-hTLR7 cells were incubated at a density of 250,000˜450,000 cells/mL in a volume of 170 μL in a 96-well plate in Dulbecco's Modified Eagle's medium (DMEM) containing 4.5 g/L glucose, 50 U/mL penicillin, […], […] Normocin, 2 mM L-glutamine, 10% (v/v) heat-inactivated fetal bovine serum with addition of 20 μL test compound in a serial dilution in the presence of final DMSO at 1% and 10 μL of 20 uM R848 in above DMEM, perform incubation under 37° C. in a C02 incubator for 20 hrs. Then 20 μL of the supernatant from each well was incubated with 180 μL Quanti-blue substrate solution at 37° C. for 2 hrs and the absorbance was read at 620˜655 nm using a spectrophotometer. The signaling pathway that TLR7 activation leads to downstream NF-κB activation has been widely accepted, and therefore similar reporter assay was modified for evaluating TLR7 antagonist.

Row | SMILES | IC50 [nM]
1 | C[C@H]1CN(c2ccnc3c2cnn3C)Cc2ccc(N3CCC(N4CC(N)C4)CC3)cc21 [Example 28, 1-[1-[(4R)-4-methyl-2-(1-methylpyrazolo[3,4-b]pyridin-4-yl)-3,4-dihydro-1H-isoquinolin-6-yl]-4-piperidyl]azetidin-3-amine] | 4
2 | C[C@H]1CN(c2ccnc3c2cnn3C)Cc2ccc(N3CCN(C(=O)C4CCCN4)CC3)cc21 (stereo partly drawn) [Example 8, pyrrolidin-2-yl-[4-[(4R)-4-methyl-2-(1-methylpyrazolo[3,4-b]pyridin-4-yl)-3,4-dihydro-1H-isoquinolin-6-yl]piperazin-1-yl]methanone] | 6
3 | C[C@H]1CN(c2ccnc3c2cnn3C)Cc2ccc(N3CC4(CCNCC4)OC3=O)cc21 [Example 26, 3-[(4R)-4-methyl-2-(1-methylpyrazolo[3,4-b]pyridin-4-yl)-3,4-dihydro-1H-isoquinolin-6-yl]-1-oxa-3,8-diazaspiro[4.5]decan-2-one] | 7
4 | C[C@H]1CN(c2ccnc3c2cnn3C)Cc2ccc(N3C[C@@]4(CCNC4)CC3=O)cc21 (single isomer, unassigned) [Example 53] | 18
5 | C[C@H]1CN(c2ccnc3c2cnn3C)Cc2ccc(OC[C@@H]3CNCCN3C)cc21 [Example 44, (4R)-4-methyl-2-(1-methylpyrazolo[3,4-b]pyridin-4-yl)-6-[[(2S)-1-methylpiperazin-2-yl]methoxy]-3,4-dihydro-1H-isoquinoline] | 15
6 | C[C@H]1CN(c2ccnc3c2cnn3C)Cc2ccc(OC[C@@H]3CNCCN3C=O)cc21 [Example 45, (2S)-2-[[(4R)-4-methyl-2-(1-methylpyrazolo[3,4-b]pyridin-4-yl)-3,4-dihydro-1H-isoquinolin-6-yl]oxymethyl]piperazine-1-carbaldehyde] | 12
7 | C[C@H]1CN(c2ccnc3c2cnn3C)Cc2ccc(N3CC4(CCNCC4)CC3=O)cc21 [Example 16, 2-[(4R)-4-methyl-2-(1-methylpyrazolo[3,4-b]pyridin-4-yl)-3,4-dihydro-1H-isoquinolin-6-yl]-2,8-diazaspiro[4.5]decan-3-one] | 5
8 | C[C@H]1CN(c2ccnc3c2cnn3C)Cc2ccc(N3C[C@@H]4CNCCN4C3=O)cc21 [Example 25, (8aS)-2-[(4R)-4-methyl-2-(1-methylpyrazolo[3,4-b]pyridin-4-yl)-3,4-dihydro-1H-isoquinolin-6-yl]-1,5,6,7,8,8a-hexahydroimidazo[1,5-a]pyrazin-3-one] | 15
9 | C[C@H]1CN(c2ccnc3c2cnn3C)Cc2ccc(N3C[C@@H]4CCNCC4C3=O)cc21 (relative stereo) [Example 55, cis-2-[(4R)-4-methyl-2-(1-methylpyrazolo[3,4-b]pyridin-4-yl)-3,4-dihydro-1H-isoquinolin-6-yl]-3a,4,5,6,7,7a-hexahydro-1H-pyrrolo[3,4-c]pyridin-3-one] | 7
10 | C[C@H]1CN(c2ccnc3c2cnn3C)Cc2ccc(N3CC4CNC[C@H]4C3=O)cc21 (relative stereo) [Example 17, cis-5-[(4R)-4-methyl-2-(1-methylpyrazolo[3,4-b]pyridin-4-yl)-3,4-dihydro-1H-isoquinolin-6-yl]-1,2,3,3a,6,6a-hexahydropyrrolo[3,4-c]pyrrol-4-one] | 8
11 | C[C@H]1CN(c2ccnc3c2cnn3C)Cc2ccc(N3C[C@@H]4CCNC[C@@H]4C3=O)cc21 (single isomer, unassigned) [Example 57] | 8
12 | C[C@H]1CN(c2ccnc3c2cnn3C)Cc2ccc(N3CC4(CCNC4)CC3=O)cc21 (stereo partly drawn) [Example 52, 2-[(4R)-4-methyl-2-(1-methylpyrazolo[3,4-b]pyridin-4-yl)-3,4-dihydro-1H-isoquinolin-6-yl]-2,7-diazaspiro[4.4]nonan-3-one] | 9
13 | C[C@H]1CN(c2ccnc3c2cnn3C)Cc2ccc(N3CCN(C(=O)C4CNCCO4)CC3)cc21 (stereo partly drawn) [Example 12, morpholin-2-yl-[4-[(4R)-4-methyl-2-(1-methylpyrazolo[3,4-b]pyridin-4-yl)-3,4-dihydro-1H-isoquinolin-6-yl]piperazin-1-yl]methanone] | 9

Further lines, results first:

Row | IC50 [nM] | SMILES
14 | 36 | Cc1cc(N2Cc3ccc(N4CCOC5(CNC5)C4)nc3[C@@H](C)C2)c2cnn(C)c2n1 [Example 70, 8-[(8S)-6-(1,6-dimethylpyrazolo[3,4-b]pyridin-4-yl)-8-methyl-7,8-dihydro-5H-1,6-naphthyridin-2-yl]-5-oxa-2,8-diazaspiro[3.5]nonane]
15 | 11 | Cc1cc(N2Cc3ccc(N4CCN(C)CC4)nc3[C@@H](C)C2)c2cnn(C)c2n1 [Example 67, (8S)-6-(1,6-dimethylpyrazolo[3,4-b]pyridin-4-yl)-8-methyl-2-(4-methylpiperazin-1-yl)-7,8-dihydro-5H-1,6-naphthyridine]
16 | 26 | C[C@H]1CN(c2ccnc3c2cnn3C)Cc2ccc(N3CC4(CNC4)CC3=O)cc21 [Example 34, 6-[(4R)-4-methyl-2-(1-methylpyrazolo[3,4-b]pyridin-4-yl)-3,4-dihydro-1H-isoquinolin-6-yl]-2,6-diazaspiro[3.4]octan-7-one]
17 | 3 | Cc1cc(N2Cc3ccc(N4CCC(O)(CN(C)C)CC4)nc3[C@@H](C)C2)c2cnn(C)c2n1 [Example 61, 4-[(dimethylamino)methyl]-1-[(8S)-6-(1,6-dimethylpyrazolo[3,4-b]pyridin-4-yl)-8-methyl-7,8-dihydro-5H-1,6-naphthyridin-2-yl]piperidin-4-ol]
18 | 19 | Cc1cc(N2Cc3cnc(O[C@@H]4C[C@H]5CNCCN5C4)cc3[C@@H](C)C2)c2cnn(C)c2n1 [Example 76, (4R)-2-(1,6-dimethylpyrazolo[3,4-b]pyridin-4-yl)-4-methyl-6-[[(7R,8aS)-1,2,3,4,6,7,8,8a-octahydropyrrolo[1,2-a]pyrazin-7-yl]oxy]-3,4-dihydro-1H-2,7-naphthyridine]
19 | 8 | Cc1cc(N2Cc3ccc(N4CCNCC4)nc3[C@@H](C)C2)c2cnn(C)c2n1 [Example 66, (8S)-6-(1,6-dimethylpyrazolo[3,4-b]pyridin-4-yl)-8-methyl-2-piperazin-1-yl-7,8-dihydro-5H-1,6-naphthyridine]
20 | 19 | Cc1cc(N2Cc3cnc(OCCN4CCNCC4)cc3[C@@H](C)C2)c2cnn(C)c2n1 [Example 77, (4R)-2-(1,6-dimethylpyrazolo[3,4-b]pyridin-4-yl)-4-methyl-6-(2-piperazin-1-ylethoxy)-3,4-dihydro-1H-2,7-naphthyridine]
21 | 5 | CO[C@@H]1CN(c2ccc3c(c2)[C@@H](C)CN(c2cc(C)nc4c2cnn4C)C3)C[C@H]1N [Example 23, (3R,4R)-4-methoxy-1-[(4R)-2-(1,6-dimethylpyrazolo[3,4-b]pyridin-4-yl)-4-methyl-3,4-dihydro-1H-isoquinolin-6-yl]pyrrolidin-3-amine]
22 | 10 | Cc1cc(N2Cc3cnc(N4CCNC5(CC5)C4)cc3[C@@H](C)C2)c2cnn(C)c2n1 [Example 75, (4R)-6-(4,7-diazaspiro[2.5]octan-7-yl)-2-(1,6-dimethylpyrazolo[3,4-b]pyridin-4-yl)-4-methyl-3,4-dihydro-1H-2,7-naphthyridine]
